Drawing on patent US20210261512A1, “NOVEL COMPOUNDS” (INFLAZOME LIMITED, priority 2018, published 2021), this text covers IC50 for 19 compounds.

Each structure is given as a SMILES string.

Broadly, the IC50 is the midpoint of a concentration-inhibition curve.

Assay [1] has as its target T1, NLRP3 (Homo sapiens, UniProt Q96P20). Kind of assay: Human whole blood IL1β release assay. Particulars: LPS 1 μg/ml, nigericin 10 μM, IL-1β AlphaLisa, 10 μM top dose (Example 2: top dose of 30 μM), read-out: HWB IC50. It counts as cell-based. Put shortly: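 Healthy-donor heparinised human whole blood with 1 μg/ml LPS, compound (8-point half-log dilution, 10 μM top dose unless stated; 0.1% DMSO vehicle) for 3 h at 37 °C, then nigericin 10 μM final for 1 h. Supernatant IL-1β by AlphaLISA; IC50 from 4-parameter variable-slope fit.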

For assay [2], the target named is T1, NLRP3. Kind of assay: THP-1 cells pyroptosis assay. It is filed as cell-based. The arrangement: Seed THP-1 cells (25,000 cells/well) containing 1.0 μg/ml LPS; host or cells: THP-1. Particulars: LPS 1.0 μg/ml, nigericin 5 μM, resazurin readout, 10 μM top dose (Example 2: top dose of 30 μM). In outline: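 THP-1 cells (25,000/well) primed with 1 μg/ml LPS in serum-free RPMI, treated with compound (8-point dilution, 10 μM top unless stated; 0.1% DMSO) 3 h at 37°C, then nigericin 5 μM 1 h. Viability read by resazurin (100 μM, 1-2 h) fluorescence; IC50 from 4-parameter fit.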
In general terms: The colour change of resazurin is a common sign of viable cells or microbes.

T1 sequence (Q96P20 whole entry): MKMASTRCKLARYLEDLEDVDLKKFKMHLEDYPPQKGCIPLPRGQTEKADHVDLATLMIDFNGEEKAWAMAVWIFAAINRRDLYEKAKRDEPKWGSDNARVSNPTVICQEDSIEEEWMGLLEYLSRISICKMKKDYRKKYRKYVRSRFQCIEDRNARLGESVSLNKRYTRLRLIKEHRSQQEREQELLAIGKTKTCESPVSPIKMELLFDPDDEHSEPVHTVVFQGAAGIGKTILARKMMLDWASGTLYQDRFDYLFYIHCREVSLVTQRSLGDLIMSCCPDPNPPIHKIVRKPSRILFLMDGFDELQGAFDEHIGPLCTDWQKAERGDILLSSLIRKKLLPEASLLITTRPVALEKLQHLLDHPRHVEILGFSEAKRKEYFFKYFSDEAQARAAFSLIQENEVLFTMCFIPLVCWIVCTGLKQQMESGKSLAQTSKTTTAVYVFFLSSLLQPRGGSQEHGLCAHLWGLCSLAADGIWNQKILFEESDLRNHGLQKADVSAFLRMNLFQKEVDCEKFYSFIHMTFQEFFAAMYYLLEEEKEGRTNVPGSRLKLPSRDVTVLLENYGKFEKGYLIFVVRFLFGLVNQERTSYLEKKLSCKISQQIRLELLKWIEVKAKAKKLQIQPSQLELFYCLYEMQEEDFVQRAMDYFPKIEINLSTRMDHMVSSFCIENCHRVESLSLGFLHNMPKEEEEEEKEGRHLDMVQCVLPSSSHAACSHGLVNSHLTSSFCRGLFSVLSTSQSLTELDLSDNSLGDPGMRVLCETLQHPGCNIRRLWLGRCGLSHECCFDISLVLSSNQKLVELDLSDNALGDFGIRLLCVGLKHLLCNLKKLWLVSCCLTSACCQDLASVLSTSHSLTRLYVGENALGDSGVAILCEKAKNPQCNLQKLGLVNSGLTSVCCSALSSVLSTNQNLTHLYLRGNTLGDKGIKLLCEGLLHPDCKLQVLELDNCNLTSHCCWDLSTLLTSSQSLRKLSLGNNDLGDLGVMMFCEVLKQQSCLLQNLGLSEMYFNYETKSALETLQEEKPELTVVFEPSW

As for `COC1(c2cc(S(=O)(=O)c3nnc(Nc4c5c(cc6c4CCC6)CCC5)[nH]3)nn2C)COC1` [Example 12, N-(1,2,3,5,6,7-hexahydro-s-indacen-4-yl)-5-((5-(3-methoxyoxetan-3-yl)-1-methyl-1H-pyrazol-3-yl)sulfonyl)-4H-1,2,4-triazol-3-amine], the IC50 on NLRP3 [1] was no more than 10000 nM; on NLRP3 [2], no more than 1000 nM.

Consider `NC(=O)c1cccc(S(=O)(=O)c2nnc(Nc3c4c(cc5c3CCC5)CCC4)[nH]2)c1` [Example 341, 3-((5-((1,2,3,5,6,7-hexahydro-s-indacen-4-yl)amino)-4H-1,2,4-triazol-3-yl)sulfonyl)benzamide], for which the IC50 on NLRP3 [1] was no more than 10000 nM; at NLRP3 [2], no more than 500 nM.

Consider `O=S(=O)(c1nnc(Nc2c3c(cc4c2CCC4)CCC3)[nH]1)N1CC[C@H](CN2CCCC2)C1` [Example 306, (R)—N-(1,2,3,5,6,7-hexahydro-s-indacen-4-yl)-5-((3-(pyrrolidin-1-ylmethyl)pyrrolidin-1-yl)sulfonyl)-4H-1,2,4-triazol-3-amine], for which the IC50 at NLRP3 [1] and against NLRP3 [2] was no more than 1000 nM throughout.

As to `CC(C)c1cnn(-c2ccncc2)c1Nc1nnc(S(=O)(=O)N2CCC(N(C)C)CC2)[nH]1` [Example 197, 1-((5-((4-isopropyl-1-(pyridin-4-yl)-1H-pyrazol-5-yl)amino)-4H-1,2,4-triazol-3-yl)sulfonyl)-N,N-dimethylpiperidin-4-amine], the IC50 at NLRP3 [1] and on NLRP3 [2] was no more than 500 nM each time.

As to `COc1cc(-c2ccc3c(c2Nc2nnc(S(=O)(=O)c4ccn(C)n4)[nH]2)CCC3)ccn1` [Example 339, N-(5-(2-methoxypyridin-4-yl)-2,3-dihydro-1H-inden-4-yl)-5-((1-methyl-1H-pyrazol-3-yl)sulfonyl)-4H-1,2,4-triazol-3-amine], the IC50 is no more than 5000 nM at NLRP3 [1] and no more than 1000 nM at NLRP3 [2].

`COc1cc(-c2cc(F)cc(C(C)C)c2Nc2nnc(S(=O)(=O)N3CCC(N(C)C)CC3)[nH]2)ccn1` [Example 261, 1-((5-((4-fluoro-2-isopropyl-6-(2-methoxypyridin-4-yl)phenyl)amino)-4H-1,2,4-triazol-3-yl)sulfonyl)-N,N-dimethylpiperidin-4-amine]: the IC50 at NLRP3 [1] is no more than 1000 nM; against NLRP3 [2], no more than 500 nM.

Regarding `CCN1CCC2(C1)CN(S(=O)(=O)c1nnc(Nc3c4c(cc5c3CCC5)CCC4)[nH]1)C2` [Example 240, 5-((6-ethyl-2,6-diazaspiro[3.4]octan-2-yl)sulfonyl)-N-(1,2,3,5,6,7-hexahydro-s-indacen-4-yl)-4H-1,2,4-triazol-3-amine], the IC50 on NLRP3 [1] and on NLRP3 [2] was no more than 500 nM throughout.

In the case of `Cc1cc2c(c(Nc3nnc(S(=O)(=O)c4ccccc4)[nH]3)c1-c1ccnc(OC3CCOCC3)c1)CCC2` [Example 370, N-(6-methyl-5-(2-((tetrahydro-2H-pyran-4-yl)oxy)pyridin-4-yl)-2,3-dihydro-1H-inden-4-yl)-5-(phenylsulfonyl)-4H-1,2,4-triazol-3-amine], the IC50 at NLRP3 [1] is no more than 5000 nM; on NLRP3 [2], no more than 500 nM.

For the compound `CN1CCC2(CCN(S(=O)(=O)c3nnc(Nc4c5c(cc6c4CCC6)CCC5)[nH]3)C2)C1` (centres unmarked) [Example 277, N-(1,2,3,5,6,7-hexahydro-s-indacen-4-yl)-5-((7-methyl-2,7-diazaspiro[4.4]nonan-2-yl)sulfonyl)-4H-1,2,4-triazol-3-amine], the IC50 is no more than 1000 nM at NLRP3 [1] and no more than 500 nM at NLRP3 [2].

With `[2H]C([2H])([2H])Oc1cc(-c2ccc3c(c2Nc2nnc(S(=O)(=O)N4CC[C@H](C(C)(C)O)C4)[nH]2)CCO3)ccn1` [Example 343, (S)-2-(1-((5-((5-(2-(methoxy-d3)pyridin-4-yl)-2,3-dihydrobenzofuran-4-yl)amino)-4H-1,2,4-triazol-3-yl)sulfonyl)pyrrolidin-3-yl)propan-2-ol], the IC50 on NLRP3 [1] is no more than 1000 nM; at NLRP3 [2], no more than 500 nM.

Consider `O=S(=O)(c1nnc(Nc2c3c(cc4c2CCC4)CCC3)[nH]1)N1CC(N2CCCC2)C1` [Example 136, N-(1,2,3,5,6,7-hexahydro-s-indacen-4-yl)-5-((3-(pyrrolidin-1-yl)azetidin-1-yl)sulfonyl)-4H-1,2,4-triazol-3-amine], for which the results for the IC50 at NLRP3 [1] and against NLRP3 [2] were no more than 5000 nM and no more than 500 nM, respectively.

`CN(C)CCn1ccc(S(=O)(=O)c2nnc(Nc3c4c(cc5c3CCC5)CCC4)[nH]2)n1` [Example 349, 5-((1-(2-(dimethylamino)ethyl)-1H-pyrazol-3-yl)sulfonyl)-N-(1,2,3,5,6,7-hexahydro-s-indacen-4-yl)-4H-1,2,4-triazol-3-amine]: the values for the IC50 on NLRP3 [1] and on NLRP3 [2] were no more than 5000 nM and no more than 500 nM, respectively.

Consider `CN(C)C1CCN(S(=O)(=O)c2nnc(Nc3c(-c4ccnc(OC(F)F)c4)ccc4c3CCO4)[nH]2)CC1` [Example 225, 1-((5-((5-(2-(difluoromethoxy)pyridin-4-yl)-2,3-dihydrobenzofuran-4-yl)amino)-4H-1,2,4-triazol-3-yl)sulfonyl)-N,N-dimethylpiperidin-4-amine], for which the half-inhibitory concentration (IC50) at NLRP3 [1] was no more than 1000 nM; at NLRP3 [2] it was no more than 500 nM.

In the case of `O=S(=O)(c1nnc(Nc2c3c(cc4c2CCC4)CCC3)[nH]1)N1CCC2(CCN2C2CC2)CC1` [Example 254, 5-((1-cyclopropyl-1,7-diazaspiro[3.5]nonan-7-yl)sulfonyl)-N-(1,2,3,5,6,7-hexahydro-s-indacen-4-yl)-4H-1,2,4-triazol-3-amine], the IC50 at NLRP3 [1] is no more than 5000 nM; against NLRP3 [2], no more than 500 nM.

For `CN1CCC12CCN(S(=O)(=O)c1nnc(Nc3c(-c4ccnc(OC(F)F)c4)ccc4c3CCC4)[nH]1)CC2` [Example 200, N-(5-(2-(difluoromethoxy)pyridin-4-yl)-2,3-dihydro-1H-inden-4-yl)-5-((1-methyl-1,7-diazaspiro[3.5]nonan-7-yl)sulfonyl)-4H-1,2,4-triazol-3-amine], the IC50 is no more than 5000 nM at NLRP3 [1] and no more than 500 nM against NLRP3 [2].

`[2H]C([2H])([2H])Oc1cc(-c2ccc3c(c2Nc2nnc(S(=O)(=O)N4CCC(N(C)C)CC4)[nH]2)CCO3)ccn1` [Example 218, 1-((5-((5-(2-(methoxy-d)pyridin-4-yl)-2,3-dihydrobenzofuran-4-yl)amino)-4H-1,2,4-triazol-3-yl)sulfonyl)-N,N-dimethylpiperidin-4-amine]: the IC50 on NLRP3 [1] and against NLRP3 [2] was no more than 500 nM throughout.

On to `CN1CC2(C1)CN(S(=O)(=O)c1nnc(Nc3c4c(cc5c3CCC5)CCC4)[nH]1)C2` [Example 137, N-(1,2,3,5,6,7-hexahydro-s-indacen-4-yl)-5-((6-methyl-2,6-diazaspiro[3.3]heptan-2-yl)sulfonyl)-4H-1,2,4-triazol-3-amine], for which the IC50 at NLRP3 [1] and against NLRP3 [2] was no more than 500 nM each time.

For the compound `COc1cc(-c2ccc3c(c2Nc2nnc(S(=O)(=O)N4CCC5(CCN5C)CC4)[nH]2)CCO3)ccn1` [Example 203, N-(5-(2-methoxypyridin-4-yl)-2,3-dihydrobenzofuran-4-yl)-5-((1-methyl-1,7-diazaspiro[3.5]nonan-7-yl)sulfonyl)-4H-1,2,4-triazol-3-amine], the IC50 on NLRP3 [1] was no more than 5000 nM; against NLRP3 [2], no more than 500 nM.

As to `COC(C)(C)Cn1ccc(S(=O)(=O)c2nnc(Nc3c4c(cc5c3CCC5)CCC4)[nH]2)n1` [Example 18, N-(1,2,3,5,6,7-hexahydro-s-indacen-4-yl)-5-((1-(2-methoxy-2-methylpropyl)-1H-pyrazol-3-yl)sulfonyl)-4H-1,2,4-triazol-3-amine], the IC50 at NLRP3 [1] was no more than 10000 nM; against NLRP3 [2] it was no more than 500 nM.
